11 compounds from publication PMC7155171, “Probing the Open Global Health Chemical Diversity Library for Multistage-Active Starting Points for Next-Generation Antimalarials” (ACS Infectious Diseases, 2020) can be followed below.

The test system of one experiment is P. falciparum Dd2. Put plainly: SYBR green I asexual blood stage proliferation assay (96 h). Conditions: Plasmodium falciparum, DD2, 11-pt dose response, 96hr. It counts as cell-based, Plasmodium falciparum.
The subject of experiment [1] is P. falciparum Dd2 (PfLuc) line expressing firefly luciferase, asexual blood stage. Put plainly: microbe, parasite or virus in culture. It counts as cell-based, Plasmodium falciparum. Conditions: Plasmodium falciparum.
Where [2] appears, read: Sybr Green I, read-out: CDD P. falciparum Sybr Green I ABS 11-pt Reconfirmation Dose Response (96hr): IC50.
Where [3] appears, read: Sybr Green I, read-out: CDD P. falciparum Sybr Green I ABS 11-pt Reconfirmation Dose Response (96hr): Maximum inhibition (%).
Where [4] appears, read: DD2, read-out: CDD P. falciparum Luciferase ABS 11-pt Reconfirmation Dose Response (48hr): IC50 (μM), 11-pt dose response, 48hr.
Setting [5] is: DD2, 8-pt dose response, 96hr, read-out: CDD P. falciparum Luciferase ABS 8-pt Reconfirmation Dose Response (96hr): IC50.
Where [6] appears, read: DD2, 8-pt dose response, 96hr, read-out: CDD P. falciparum Luciferase ABS 8-pt Reconfirmation Dose Response (96hr): Maximum inhibition (%).
Setting [7] is: DD2, 11-pt dose response, 48hr, read-out: CDD P. falciparum Luciferase ABS 11-pt Reconfirmation Dose Response (48hr): Maximum inhibition (%).
The mark [8] stands for this setting: DD2, 11-pt dose response, 96hr, read-out: CDD P. falciparum Luciferase ABS 11-pt Reconfirmation Dose Response (96hr): IC50.
Setting [9] is: DD2, 11-pt dose response, 96hr, read-out: CDD P. falciparum Luciferase ABS 11-pt Reconfirmation Dose Response (96hr): Maximum inhibition (%).
Where [10] appears, read: read-out: P. falciparum Sybr Green I ABS 11-pt Reconfirmation Dose Response (96hr): IC50.
Setting [11] is: read-out: P. falciparum Sybr Green I ABS 11-pt Reconfirmation Dose Response (96hr): Maximum inhibition (%).
Setting [12] is: DD2, read-out: P. falciparum Luciferase ABS 11-pt Reconfirmation Dose Response (48hr): IC50, 11-pt dose response, 48hr.
Setting [13] is: DD2, 8-pt dose response, 96hr, read-out: P. falciparum Luciferase ABS 8-pt Reconfirmation Dose Response (96hr): IC50.
Where [14] appears, read: DD2, 8-pt dose response, 96hr, read-out: P. falciparum Luciferase ABS 8-pt Reconfirmation Dose Response (96hr): Maximum inhibition (%).
The mark [15] stands for this setting: DD2, 11-pt dose response, 48hr, read-out: P. falciparum Luciferase ABS 11-pt Reconfirmation Dose Response (48hr): Maximum inhibition (%).
Setting [16] is: DD2, 11-pt dose response, 96hr, read-out: P. falciparum Luciferase ABS 11-pt Reconfirmation Dose Response (96hr): IC50.
Where [17] appears, read: DD2, 11-pt dose response, 96hr, read-out: P. falciparum Luciferase ABS 11-pt Reconfirmation Dose Response (96hr): Maximum inhibition (%).

For orientation: IC50 means the concentration needed to halve the response being measured.

The structures appear in SMILES notation. Where two headings read alike, the source gives them in different places. Bounds are passed on as bounds.

As to `Cc1nccn1CCCN1CCCC(c2ccccc2)C1` (centres unmarked) [DDD01251840], the IC50 in the experiment with P. falciparum Dd2 (setting [2]) worked out at 880 nM; in experiment [1] (setting [4]), 3.3 µM; in experiment [1] (setting [5]) it was 0.25 µM; in experiment [1] (setting [8]), 0.14 µM. The Emax came to 93.4% in the experiment with P. falciparum Dd2 (setting [3]), 91.7% in experiment [1] (setting [6]), 83.3% in experiment [1] (setting [7]) and 99.5% in experiment [1] (setting [9]).
As for `OCc1csc(N2CCCC(COc3cccc(F)c3)C2)n1` (centres unmarked) [DDD01251951], the half-inhibitory concentration (IC50) is 1630 nM in the experiment on P. falciparum Dd2 (setting [10]), greater than 12.5 µM in experiment [1] (setting [12]), 1.71 µM in experiment [1] (setting [13]) and 3.99 µM in experiment [1] (setting [16]). For the same compound, the Emax in the experiment on P. falciparum Dd2 (setting [11]) was 63%; in experiment [1] (setting [14]) it was 79.1%; in experiment [1] (setting [15]), 45.9%; in experiment [1] (setting [17]), 82.9%.
In the case of `CN(CCCO)Cc1cc(Cl)ccc1OCC(O)CN1CCCCCC1` (centres unmarked) [DDD01251957], the IC50 is 2750 nM with P. falciparum Dd2 (setting [2]), 2.71 µM in experiment [1] (setting [4]), 0.99 µM in experiment [1] (setting [5]) and greater than 1.39 µM in experiment [1] (setting [8]). For the same compound, the figures for the Emax in experiment [1] (setting [6]), in experiment [1] (setting [7]) and in experiment [1] (setting [9]) were 94.6%, 99.2% and 101%, respectively.
With `CN1CCN(Cc2ccccc2Oc2nccc3occc23)CC1` [DDD01252026], the IC50 was greater than 4160 nM in the experiment with P. falciparum Dd2 (setting [2]), greater than 12.5 µM in experiment [1] (setting [4]), 0.71 µM in experiment [1] (setting [5]) and 2.91 µM in experiment [1] (setting [8]). In addition, the Emax is 63.4% in the experiment with P. falciparum Dd2 (setting [3]), 83.5% in experiment [1] (setting [6]), 26.1% in experiment [1] (setting [7]) and 85.7% in experiment [1] (setting [9]).
`O=C(C1CNCCO1)N1CCCC(c2ccccc2)(c2ccccc2)C1` (centres unmarked) [DDD01252287]: the IC50 in the experiment with P. falciparum Dd2 (setting [10]) worked out at 5760 nM; in experiment [1] (setting [12]) it was 6.95 µM; in experiment [1] (setting [13]), 2.21 µM; in experiment [1] (setting [16]) it was 2.05 µM. Further, the Emax in the experiment on P. falciparum Dd2 (setting [11]) came to 58.4%; in experiment [1] (setting [14]), 80.7%; in experiment [1] (setting [15]) it was 53.2%; in experiment [1] (setting [17]), 83.1%.
Regarding `COCCn1ccnc1CN(Cc1ccccn1)Cc1sccc1C` [DDD01252459], the IC50 with P. falciparum Dd2 (setting [10]) was greater than 4160 nM; in experiment [1] (setting [12]), 3.48 µM; in experiment [1] (setting [13]), 1.19 µM; in experiment [1] (setting [16]), 0.73 µM. For the same compound, the Emax with P. falciparum Dd2 (setting [11]) was found to be 87.8%; in experiment [1] (setting [14]) it was 90.8%; in experiment [1] (setting [15]), 94.7%; in experiment [1] (setting [17]) it was 99.1%.
Turning to `Cc1ccc(C2(CN(C)Cc3sccc3C)CCNCC2)nc1` [DDD01252463], the IC50 is greater than 12500 nM in the experiment on P. falciparum Dd2 (setting [2]), greater than 12.5 µM in experiment [1] (setting [4]), 0.73 µM in experiment [1] (setting [5]) and 1.59 µM in experiment [1] (setting [8]). In addition, the Emax in the experiment on P. falciparum Dd2 (setting [3]) was 57.2%; in experiment [1] (setting [6]) it was 78.8%; in experiment [1] (setting [7]), 41.3%; in experiment [1] (setting [9]), 81.7%.
As to `c1ccn2c(C3CCCN(c4ncnc5c4CCNC5)C3)nnc2c1` (centres unmarked) [DDD01252518], the concentration for half-maximal inhibition (IC50) in the experiment with P. falciparum Dd2 (setting [2]) is greater than 12500 nM; in experiment [1] (setting [4]), greater than 1.39 µM; in experiment [1] (setting [5]) it was 0.26 µM; in experiment [1] (setting [8]), 0.449 µM. In addition, the Emax was 42% with P. falciparum Dd2 (setting [3]), 90.8% in experiment [1] (setting [6]), 64.8% in experiment [1] (setting [7]) and 97.6% in experiment [1] (setting [9]).
For `CCOc1cccc(CN2CCCC(Nc3ccc(F)cc3)C2)c1O` (centres unmarked) [DDD01252745], the IC50 with P. falciparum Dd2 (setting [2]) was 1880 nM; in experiment [1] (setting [4]), 1.43 µM; in experiment [1] (setting [5]), 0.6 µM; in experiment [1] (setting [8]), 0.703 µM. Further, the Emax in the experiment with P. falciparum Dd2 (setting [3]) stood at 98.6%; in experiment [1] (setting [6]), 93.4%; in experiment [1] (setting [7]), 96.3%; in experiment [1] (setting [9]), 99.7%.
`CN(CCO)C[C@@H]1CN(Cc2ccccc2-c2ccccc2)C[C@@H]1CO` [DDD01252927]: the IC50 with P. falciparum Dd2 (setting [2]) is greater than 1390 nM; in experiment [1] (setting [4]), 8.14 µM; in experiment [1] (setting [5]), 0.57 µM; in experiment [1] (setting [8]), 1.25 µM. Also, the Emax in the experiment on P. falciparum Dd2 (setting [3]) came out at 89.1%; in experiment [1] (setting [6]), 92%; in experiment [1] (setting [7]), 71.8%; in experiment [1] (setting [9]), 92.8%.
For `Cc1ccc(C)c(OCCNC(=O)[C@@H]2CCCCN2)c1` [DDD01252936], the half-inhibitory concentration (IC50) with P. falciparum Dd2 (setting [2]) was 7600 nM; in experiment [1] (setting [4]), 6.36 µM; in experiment [1] (setting [5]), 0.37 µM; in experiment [1] (setting [8]), 1.17 µM. Moreover, the Emax in experiment [1] (setting [6]) was determined as 89.3%; in experiment [1] (setting [7]), 74.3%; in experiment [1] (setting [9]), 87.5%.
